Measured values taken from patent US20110245265A1, “CXCR4 ANTAGONISTS FOR KIDNEY INJURY” (GENZYME CORPORATION, priority 2008, published 2011).
“Also recorded” adds a separate entry of the source. Where two headings read alike, the source gives them in different places.

Columns and labels:
[1] = tested on: renal ischemia-reperfusion injury; test: Renal function (creatinine, BUN) in rat model of renal ischemia-reperfusion injury; type: in vivo; details: for effect on creatinine: FIG. 7B; for renal function loss / acute kidney injury: P≦0.05; for plasma creatinine: not significant (P>0.05), FIG. 5B; for creatinine levels: FIG. 1B
Protocol: This example illustrates the effect of multiple dosing strategies of AMD3465 in an in vivo rat model of renal ischemia-reperfusion injury in which the renal artery and vein of both kidneys were clamped for 45 minutes followed by removal of the clamps and reperfusion with blood. […] Group 1 follows this dosing regimen as illustrated in FIG. 1A. FIGS. 1B and 1C show creatinine and BUN levels in mg/dL of Group 1 subjects compared to subjects following different dosing strategies shown in FIG. 1A using 10 mg/kg. Also shown in FIG. 1A—Group 2 was dosed at −15 min and +2 hrs and +4 hrs and Group 3 at time 0 and +2 hrs.
FIG. 5A diagrams the dosing regimen timeline for groups 1 and 2. FIGS. 5B, 5C and 5D show the creatine (serum or plasma) and blood urea nitrogen levels of the AMD treated groups, vehicle treated and normal subjects. Dosing was carried out with two 1 mg/kg administrations (Group 1) or 5 mg/kg in a single dose (Group 2). […] FIG. 5C and FIG. 5D illustrate individual data points of each rat for plasma creatinine and blood urea nitrogen, respectively.
FIG. 6A illustrates the dosing regimen.
FIG. 7A illustrates the dosing regimen. Group 1 was administered 0.01 mg/kg both 15 minutes before and 3 hours after ischemia; Group 2 was administered 0.1 mg/kg at 15 minutes before.

[2] = tested on: renal ischemia-reperfusion injury; test: Kidney histology: injury score (hematoxylin/eosin) and TUNEL score after renal ischemia-reperfusion; type: in vivo, rat
Protocol: Rats were dosed as described for Group 1 rats in FIG. 1A. […] FIGS. 2C and 2D show graphs of the Injury and TUNEL score, respectively. Injury was evaluated by scoring hematoxylin and eosin stained kidney sections on a scale of 1 to 4 for proteinaceous cast formation, cell exfoliation, vascular congestion and loss of tubular architecture. TUNEL staining was carried out on kidney sections to identify apoptotic cells that were then quantified by Metamorph analysis.
(§1) Data for FIGS. 8A, 8B and 8C were generated as described for FIGS. 2C, 2D and 3C, respectively.

[3] = tested on: renal ischemia-reperfusion injury; test: Microvascular permeability: rat IgG immunostaining of kidney and serum vWF ELISA after renal ischemia-reperfusion; type: in vivo
Excerpt: Leakage of plasma proteins and secretion of von Willebrand Factor (vWF) are two indicators of the loss of microvascular integrity. FIGS. 3A and 3B are images of kidney tissue harvested 24 hrs after renal ischemia-reperfusion from subjects treated with the vehicle and AMD3465, respectively; tissue sections were immunostained with an antibody that recognizes rat immunoglobulin (IgG) and immunoreactivity quantified by Metamorph analysis illustrated in FIG. 3C. […] Renal ischemia-reperfusion rats that received AMD3465 represent Group 1 rats in FIG. 1A.
as §1

[4] = tested on: myeloperoxidase activity; details: both regimens of FIG. 6A; FIG. 8D
Excerpt: as §1

[5] = tested on: white blood cells; details: normal rats; single dose 1 mg/kg at time 0 versus 0.1 mg/kg twice (time 0 and 3 hrs later); FIG. 9
[6] = rat, in vivo
Protocol: FIG. 4A provides body weight data of subjects administered vehicle, and subjects in Group 1 and Group 2 (Groups described in FIG. 1A). […] FIG. 4B gives white blood cell (WBC) counts at 24 hours of Group 1 and 2 subjects, subjects administered vehicle and normal subjects administered AMD3465.

[7] = tested on: IL-6/IL-10 mRNA expression; details: Group 1 dosing

With c1cc(CN2CCCNCCNCCCNCC2)ccc1CN1CCCNCCNCCCNCC1 [AMD3100, 1,1′-[1,4-phenylene-bis(methylene)]-bis-1,4,8,11-tetraazacyclotetradecane] as the compound, how does the effect on creatinine ([1]; 0.01 mg/kg both 15 minutes before and 3 hours after ischemia (Group 1, FIG. 7A)) read?
Its effect on creatinine is “less positive results”.

What about the “renal function loss / acute kidney injury” value ([1]; 0.1 mg/kg 15 minutes prior to ischemia and 3 hrs later (Group 1, FIG. 6A)) of the same compound?
The value was “therapeutically effective”.

What about the effect on creatinine ([1]; 0.1 mg/kg at 15 minutes before ischemia (Group 2, FIG. 7A)) of the same compound?
Its effect on creatinine is “comparable to that shown in FIG. 6B”.

What about the “renal function loss / acute kidney injury” value ([1]; 1 mg/kg only at 15 minutes prior to ischemia (Group 2, FIG. 6A)) of the same compound?
Its value is “therapeutically effective”.

And the “rats that demonstrated lower plasma creatinine (individual data points)” value ([1]; FIG. 5C, dosing of FIG. 5A)?
The value was “five”.

And the plasma creatinine levels ([1]; regimens of FIG. 6A (0.1 mg/kg twice or 1 mg/kg once), FIG. 6B)?
Its plasma creatinine levels is “reduction”.

And the BUN levels ([1]; regimens of FIG. 6A (0.1 mg/kg twice or 1 mg/kg once), FIG. 6C)?
The BUN levels was “reduction”.

And the “plasma BUN” value ([1]; regimens of FIG. 7A (0.01 mg/kg twice or 0.1 mg/kg once), FIG. 7C compared with FIG. 6C)?
The value was “only slightly less effective”.

And the plasma creatinine ([1]; single dose of 5 mg/kg (Group 2, FIG. 5A))?
The plasma creatinine was “decrease”.

What about the plasma creatinine ([1]; two doses of 1 mg/kg (Group 1, FIG. 5A)) of the same compound?
Its plasma creatinine is “decrease”.

And the TUNEL score ([2]; regimen of FIG. 6A (0.1 mg/kg twice or 1.0 mg/kg once), FIG. 8B)?
Its TUNEL score is “significant effect”.

What about the injury score ([2]; regimen of FIG. 6A (0.1 mg/kg twice or 1.0 mg/kg once), compared to vehicle, FIG. 8A) of the same compound?
The injury score was “lowered significantly”.

What about the “luminal IgG score” value ([3]; regimen of FIG. 6A (0.1 mg/kg twice or 1.0 mg/kg once), FIG. 8C) of the same compound?
Its value is “significant effect”.

And the “myeloperoxidase activity, a measure of neutrophilic infiltration into the kidney tissue” value [4]?
Its value is “lowered myeloperoxidase activity”.

And the “mobilization of white blood cells” value [5]?
The value was “Comparable results”.

What does the source list for c1ccc(CNCc2ccc(CN3CCCNCCNCCCNCC3)cc2)nc1 [AMD3465, N-[1,4,8,11-tetraazacyclotetradecanyl-1,4-phenylene-bis-(methylene)]-2-aminomethyl-pyridine]?
loss of renal function based on levels of serum creatine and serum blood urea nitrogen (BUN) ([1]; 10 mg/kg 15 min prior to ischemia and 2 hrs later (Group 1), 24 hrs after reperfusion): ameliorated the loss of renal function; creatinine levels ([1]; Group 1: 10 mg/kg at -15 min and +2 hrs, 24 hrs after reperfusion, P<0.05): closest to normal; BUN levels ([1]; Group 1: 10 mg/kg at -15 min and +2 hrs, 24 hrs after reperfusion, FIG. 1C, P<0.05): closest to normal; creatinine levels ([1]; Group 2: 10 mg/kg at -15 min, +2 hrs and +4 hrs, 24 hrs after reperfusion): closest to normal; BUN levels ([1]; Group 2: 10 mg/kg at -15 min, +2 hrs and +4 hrs, 24 hrs after reperfusion, FIG. 1C): closest to normal; structural integrity of the kidney ([2]; Group 1 dosing (10 mg/kg -15 min, +2 hrs), 24 hr post-reperfusion, vs vehicle, 10 mg/kg): maintained structural integrity; also recorded: remained intact; renal injury (Injury score) ([2]; Group 1 dosing (10 mg/kg -15 min, +2 hrs), 24 hr post-reperfusion, vs vehicle, FIG. 2C, 10 mg/kg): decreasing renal injury; also recorded: significantly reduced; cell death (TUNEL score) ([2]; Group 1 dosing (10 mg/kg -15 min, +2 hrs), 24 hr post-reperfusion, vs vehicle, FIG. 2D, 10 mg/kg): decreasing; also recorded: significantly reduced; frequency of serum proteins measured by rat IgG in the renal tubular lumen ([3]; Group 1 dosing, kidney harvested 24 hrs after renal ischemia-reperfusion, vs vehicle, FIG. 3C): less; circulating levels of the cleaved form of von Willebrand factor (serum, ELISA) ([3]; Group 1 dosing, vs vehicle, FIG. 3D): lower; body weight [6]: lost less body weight; tolerability [6]: well tolerated; white blood cell (WBC) counts [6]: comparable; ratio of IL-6/IL-10 mRNA expression ([7]; 5 hrs post-reperfusion, compared to vehicle): drops more drastically; ratio of IL-6/IL-10 mRNA expression ([7]; 24 hrs post-reperfusion): has dropped
